The source of these data is patent publication US7202274B2, “Cyclic hemiacetal derivative and use thereof” (Senju Pharmaceutical Co., Ltd., priority 2002, dated 2007).

In general, melting point refers to the temperature of the solid-liquid transition.

One data set concerns N1E-115 cells. The format is cell-based. The following applies: mouse, 24 h. Here is the method: Mouse neuroblastoma derived cell lines (N1E-115 cells) were seeded in a 96 well microplate at 10^4 per well and cultured overnight in Dulbecco's Modified Eagle's Minimum Essential Medium (100 μL, DMEM, GIBCO) containing 10% FBS at 37° C. under 5% CO2. The whole amount of the culture solution was removed, and the medium was changed to various concentrations of a test drug solution (100 μL, prepared by dissolving Compound 1 in 99.5% ethanol and adjusting final concentration of ethanol to 1% with DMEM) and the cells were cultured for 24 hr. The culture supernatant and cells were separately recovered. The cells were ultrasonicated to give soluble fractions and the lactic dehydrogenase (LDH) activity of each of them was determined with an LDH cytotoxicity detection kit (MK401, manufactured by Takara Bio Inc.), and an LDH release rate was determined by the following formula and taken as a proportion of the cells suffered from cytotoxicity. LDH release rate (%)={LDH activity of culture supernatant/(LDH activity of culture supernatant+intracellular LDH activity)}×100
LD50 was determined from the LDH release rate at each test drug concentration by LD50/ED50 probit method of SAS preclinical package (Ver. 6.12).

A short description of data set [1]: Aqueous humor penetration test. The class given is in vivo, Japanese white rabbits. The following applies: rabbit. Here is the method: The suspension of Formulation Example 4 to be mentioned later was instilled by 50 μL into the both eyes of Japanese white rabbits (body weight about 2 kg, purchased from Fukusaki Rabbit Union). At 0.25, 0.5, 1 and 3 hr after the instillation, the rabbits were sacrificed with pentobarbital and aqueous humor was recovered. Using a column switching system HPLC, the concentration of Compound 1 in the aqueous humor was measured.

Where two headings read alike, the source gives them in different places.

`CCC(C)[C@H](NC(=S)Nc1ccccc1)C(=O)N[C@H]1CCOC1O` (stereo partly drawn) [Compound 2, (2S)-3-methyl-2-(((phenylamino)thioxomethyl)amino)-N-((3S)-tetrahydro-2-hydroxy-3-furanyl)pentanamide] showed a melting point of 51.3 to 52.9 °C.
Still for that read-out and setting: as for `Cc1ccccc1NC(=S)N[C@@H](CC(C)C)C(=O)N[C@H]1CCOC1O` (stereo partly drawn) [Compound 9, (2S)-4-methyl-2-((((2-methylphenyl)amino)thioxomethyl)amino)-N-((3S)-tetrahydro-2-hydroxy-3-furanyl)pentanamide], the figure is 57.9 to 58.9 °C.
`CC(C)C[C@H](NC(=S)Nc1ccccc1)C(=O)N[C@H]1CCOC1O` (stereo partly drawn) [Compound 1, (2S)-4-methyl-2-(((phenylamino)thioxomethyl)amino)-N-((3S)-tetrahydro-2-hydroxy-3-furanyl)pentanamide]: the LDH release rate with N1E-115 cells (0.1 mM) was determined as 9.32 ± 0.07%; with N1E-115 cells (0.5 mM), 11.05 ± 0.72%; in the data set with N1E-115 cells (1 mM) it was 14.22 ± 1.14%; with N1E-115 cells (2 mM), 47.73 ± 1.66%. Also, the AUC in data set [1] (Japanese white, aqueous humor, topical, 50 μL per eye, 0-3 hr after the instillation of the suspension of Formulation Example 4, read-out: area under drug concentration-time curve (AUC) of amount penetrated to aqueous humor) was found to be 4.79 µM·h. Moreover, the Cmax in data set [1] (Japanese white, aqueous humor, topical, 50 μL per eye, 50 μL instillation of the suspension of Formulation Example 4, read-out: concentration in the aqueous humor, maximum (Cmax)) was 2900 nM. For the same compound, the “time at which concentration in the aqueous humor reached the maximum” value in data set [1] (50 μL instillation of the suspension of Formulation Example 4) worked out at 0.5 h.
As for `Cc1cccc(NC(=S)N[C@@H](CC(C)C)C(=O)N[C@H]2CCOC2O)c1` (stereo partly drawn) [Compound 10, (2S)-4-methyl-2-((((3-methylphenyl)amino)thioxomethyl)amino)-N-((3S)-tetrahydro-2-hydroxy-3-furanyl)pentanamide], the melting point is 61.4 to 61.9 °C.
